Source: patent US20240174723A1, “STAPLED ANTIMICROBIAL PEPTIDES (STAMPS) AND USES THEREOF” (Lytica Therapeutics, Inc., priority 2021, published 2024)
In brackets after ≈: the same amount, converted by molar mass. Like-named read-outs stand apart in the source and are kept apart here. Positions of bridges follow the written chain, without caps; N, C: chain ends. Non-standard residues stand in square brackets, D forms with d. Residues, ends and D or L forms follow the SMILES beside them. Phe(4-CF3) = N[C@@H](Cc1ccc(C(F)(F)F)cc1)C(=O)O; Phe(4-tBu) = CC(C)(C)c1ccc(C[C@H](N)C(=O)O)cc1; S5 = C=CCCC[C@](C)(N)C(=O)O

Columns and labels:
K. pneumoniae = format: cell-based, Klebsiella pneumoniae
How it was run: (§1)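 Read-out is visible growth: the MIC is the minimum peptide concentration showing none after 20-24 h at 37 °C. Peptides were serially diluted from water stocks and mixed with log-phase bacteria (final 5×10^5 CFU/ml) in Mueller-Hinton or cation-adjusted Mueller-Hinton broth.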

P. aeruginosa = format: cell-based, Pseudomonas aeruginosa
How it was run: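 Broth microdilution adapted from CLSI in MHB or cation-adjusted MHB; log-phase P. aeruginosa at 5×10^5 CFU/ml final with serially diluted stapled peptides. Incubated 20-24 h at 37 °C; MIC is the lowest concentration without visible growth.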

in vitro [1] = format: cell-based; settings: human
How it was run: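 HepG2 cells in EMEM with 10% FBS, allowed 4 h to attach, then exposed to serial dilutions of StAMPs (from a 5 mg/mL water stock) or vehicle. After 48 h at 37 °C, viability read by CellTiter-Glo luminescence.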

E. coli = format: cell-based, Escherichia coli
How it was run: as §1

S. aureus = format: cell-based, Staphylococcus aureus
How it was run: as §1

A. baumannii = format: cell-based, Acinetobacter baumannii
How it was run: as §1

in vitro [2] = format: cell-based; settings: human; remark: listed apart in the source
How it was run: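 RPTEC or HepG2 cells plated overnight, given fresh media, then serial StAMP dilutions (from 5 mg/mL water stock) or vehicle at 37 °C. Cytotoxicity read as LDH release into media, absorbance 490 nm; renal toxicity after 90 min, liver toxicity after 48 h incubation.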

[3] = Inhibitory Concentration at 50% Cytotoxicity (IC50) Human Liver Cells (HepG2)
[4] = 48 hours of incubation, read-out: Inhibitory Concentration at 50% Cytotoxicity (IC50) Human Liver Cells (HepG2)
[5] = 90 minutes of incubation, read-out: Inhibitory Concentration at 50% Cytotoxicity (IC50) Human Renal Proximal Tubule Epithelial Cells (RPTEC)

SMILES | Minimum Inhibitory Concentration (MIC) K. pneumoniae (K. pneumoniae) | Minimum Inhibitory Concentration (MIC) P. aeruginosa (P. aeruginosa) | IC50 at 48 hours (in vitro [1]; [3]) | Minimum Inhibitory Concentration (MIC) E. coli (E. coli) | Minimum Inhibitory Concentration (MIC) S. aureus (S. aureus) | Minimum Inhibitory Concentration (MIC) A. baumannii (A. baumannii) | IC50 at 90 min (in vitro [2]) | IC50 at 48 hours (in vitro [1]; [4]) | IC50 at 90 min (in vitro [2]; [5])
CC(C)[C@@H]1NC(=O)[C@@](C)(NC(=O)[C@H](C)NC(=O)[C@H](CCCCN)NC(=O)CNC(=O)[C@H](Cc2ccccc2)NC(=O)[C@H](CCCCN)NC(=O)[C@H](CCCCN)NC(=O)[C@H](CCCCN)NC(=O)[C@H](CCCCN)NC(=O)[C@H](CCCCN)NC(=O)[C@]2(C)CCCC=CCCC[C@](C)(NC(=O)CN)C(=O)NCC(=O)N[C@@H](CCCCN)C(=O)N[C@@H](Cc3ccccc3)C(=O)N2)CCCC=CCCC[C@@](C)(C(=O)N[C@@H](CCCCN)C(N)=O)NC(=O)[C@H](CCC(=O)O)NC(=O)CNC1=O [compound 27] (H-G[S5]GKF[S5]KKKKKFGKA[S5]VGE[S5]K-NH2; staple 2-6, 16-20) | 4 µg/mL | 4 µg/mL | 117 µg/mL (≈ 49.5 µM) | 4 µg/mL | >64 µg/mL | 4 µg/mL | 100 µg/mL (≈ 42.3 µM) |  | 
CC(C)[C@@H]1NC(=O)[C@H](C(C)C)NC(=O)[C@@](C)(NC(=O)[C@H](C)NC(=O)[C@H](CCCCN)NC(=O)CNC(=O)[C@H](Cc2ccc(C(C)(C)C)cc2)NC(=O)[C@H](CCCCN)NC(=O)[C@H](CCCCN)NC(=O)[C@H](CCCCN)NC(=O)[C@H](CCCCN)NC(=O)[C@H](Cc2c[nH]cn2)NC(=O)[C@]2(C)CCCC=CCCC[C@](C)(NC(=O)CN)C(=O)NCC(=O)N[C@@H](CCCCN)C(=O)N[C@@H](Cc3ccc(C(C)(C)C)cc3)C(=O)N2)CCCC=CCCC[C@@](C)(C(=O)N[C@@H](C)C(=O)N[C@@H](CCCCN)C(=O)N[C@@H](CCCCN)C(N)=O)NC(=O)[C@H](CCC(=O)O)NC1=O [compound 31] (H-G[S5]GK[Phe(4-tBu)][S5]HKKKK[Phe(4-tBu)]GKA[S5]VVE[S5]AKK-NH2; staple 2-6, 16-20) | 8 µg/mL | 8 µg/mL | 101 µg/mL (≈ 37 µM) | 4 µg/mL | 16 µg/mL | 4 µg/mL | 9 µg/mL (≈ 3.3 µM) |  | 
CC(C)[C@@H]1NC(=O)[C@H](C(C)C)NC(=O)[C@@](C)(NC(=O)[C@H](C)NC(=O)[C@H](CCCCN)NC(=O)CNC(=O)[C@H](Cc2ccccc2)NC(=O)[C@H](CCCCN)NC(=O)[C@H](CCCCN)NC(=O)[C@H](CCCCN)NC(=O)[C@H](CCCCN)NC(=O)[C@H](CCCCN)NC(=O)[C@]2(C)CCCC=CCCC[C@](C)(NC(=O)CN)C(=O)NCC(=O)N[C@@H](CCCCN)C(=O)N[C@@H](Cc3ccccc3)C(=O)N2)CCCC=CCCC[C@@](C)(C(=O)N[C@@H](C)C(=O)N[C@@H](CCCCN)C(=O)N[C@@H](CCCCN)C(=O)NCC(=O)NCC(=O)N[C@@H](CCC(=O)O)C(N)=O)NC(=O)[C@H](CCC(=O)O)NC1=O [compound 32] (H-G[S5]GKF[S5]KKKKKFGKA[S5]VVE[S5]AKKGGE-NH2; staple 2-6, 16-20) | 8 µg/mL | 4 µg/mL | > 200 µg/mL | 4 µg/mL | >64 µg/mL | 4 µg/mL | ~200 µg/mL (≈ 70.2 µM) |  | 
CC(C)[C@@H]1NC(=O)[C@@](C)(NC(=O)[C@H](C)NC(=O)[C@H](CCCCN)NC(=O)CNC(=O)[C@H](Cc2ccccc2)NC(=O)[C@H](CCCCN)NC(=O)[C@H](CCCCN)NC(=O)[C@H](CCCCN)NC(=O)[C@H](CCCCN)NC(=O)[C@H](CCCCN)NC(=O)[C@]2(C)CCCC=CCCC[C@](C)(NC(=O)CN)C(=O)NCC(=O)N[C@@H](CCCCN)C(=O)N[C@@H](Cc3ccccc3)C(=O)N2)CCCC=CCCC[C@@](C)(C(=O)N[C@@H](C)C(=O)N[C@@H](CCCCN)C(=O)N[C@@H](CCCCN)C(=O)NCC(=O)NCC(=O)N[C@@H](CCC(=O)O)C(N)=O)NC(=O)[C@H](CCC(=O)O)NC(=O)[C@H](Cc2ccccc2)NC1=O [compound 33] (H-G[S5]GKF[S5]KKKKKFGKA[S5]VFE[S5]AKKGGE-NH2; staple 2-6, 16-20) | 4 µg/mL | 4 µg/mL |  | 2 µg/mL | >64 µg/mL | 2 µg/mL |  | > 200 µg/mL | ~200 µg/mL (≈ 69 µM)
CC(C)[C@@H]1NC(=O)[C@@](C)(NC(=O)[C@H](C)NC(=O)[C@H](CCCCN)NC(=O)CNC(=O)[C@H](Cc2ccccc2)NC(=O)[C@H](CCCCN)NC(=O)[C@H](CCCCN)NC(=O)[C@H](CCCCN)NC(=O)[C@H](CCCCN)NC(=O)[C@H](CCCCN)NC(=O)[C@]2(C)CCCC=CCCC[C@](C)(NC(=O)CN)C(=O)NCC(=O)N[C@@H](CCCCN)C(=O)N[C@@H](Cc3ccccc3)C(=O)N2)CCCC=CCCC[C@@](C)(C(=O)N[C@@H](C)C(=O)N[C@@H](CCCCN)C(=O)N[C@@H](CCCCN)C(=O)NCC(=O)NCC(=O)N[C@@H](CCC(=O)O)C(N)=O)NC(=O)[C@H](CCC(=O)O)NC(=O)[C@@H](Cc2ccccc2)NC1=O [compound 34] (H-G[S5]GKF[S5]KKKKKFGKA[S5]V[dF]E[S5]AKKGGE-NH2; staple 2-6, 16-20) | 2 µg/mL | 4 µg/mL |  | 2 µg/mL | >64 µg/mL | 2 µg/mL |  | 109 µg/mL (≈ 37.6 µM) | 96 µg/mL (≈ 33.1 µM)
CC(C)[C@@H]1NC(=O)[C@@](C)(NC(=O)[C@H](C)NC(=O)[C@H](CCCCN)NC(=O)CNC(=O)[C@H](Cc2ccccc2)NC(=O)[C@H](CCCCN)NC(=O)[C@H](CCCCN)NC(=O)[C@H](CCCCN)NC(=O)[C@H](CCCCN)NC(=O)[C@H](CCCCN)NC(=O)[C@]2(C)CCCC=CCCC[C@](C)(NC(=O)CN)C(=O)NCC(=O)N[C@@H](CCCCN)C(=O)N[C@@H](Cc3ccccc3)C(=O)N2)CCCC=CCCC[C@@](C)(C(=O)N[C@@H](C)C(=O)N[C@@H](CCCCN)C(=O)N[C@@H](CCCCN)C(=O)NCC(=O)NCC(=O)N[C@@H](CCC(=O)O)C(N)=O)NC(=O)[C@H](CCC(=O)O)NC(=O)[C@H](Cc2ccc(C(F)(F)F)cc2)NC1=O [compound 35] (H-G[S5]GKF[S5]KKKKKFGKA[S5]V[Phe(4-CF3)]E[S5]AKKGGE-NH2; staple 2-6, 16-20) | 2 µg/mL | 2 µg/mL | > 200 µg/mL | 2 µg/mL | 64 µg/mL | 2 µg/mL | ~200 µg/mL (≈ 67.4 µM) |  | 
